Structures can show the parent of a compound that is named as a salt.
What was measured:
[1] = tested on: TNFα production by monocytes (CD14+ cells); assay: Requirement of CXCR4 (siRNA knockdown or AMD3100) for the effect on TNFα production by monocytes from healthy donors; format: cell-based, human; conditions: AMD3100 20 μM 1 h, example 1 5 μM or example 2 1 μM, R848, FIG. 5B
Description: Monocytes were purified from PBMCs by positive selection with the CD14 microbeads (Miltenyi Biotec) and MACS column.
1) The PBMCs used herein were prepared as described in part A “immune cells preparation”, section 1) above. PBMCs were seeded at 2.10^6/mL. […] Cells were then stimulated with the TLR7/8 agonist resiquimod—R848 (Invivogen) at 5 μg/mL. When stated, AMD (20 μM) (Sigma-Aldrich, MO, USA) was added to the cells 1 h before incubation with example 1.
Isolated monocytes were seeded at 10^5 cells/100 μL in 96-well plates and incubated at 37° C. Cyclophilin B (control) and CXCR4 small interfering RNA (siRNA) (Smart Pool, Dharmarcon) was diluted in DOTAP (Roche Applied Sciences). The mix was gently mixed and incubated at room temperature for 15 minutes. After incubation, the mix was added to cells in culture at a final concentration of 160 nM. Finally, cells were incubated at 37° C. for 24 hours before stimulation.
R848-stimulated PBMCs were washed in PBS and then incubated with a viability stain (Zombie-Aqua, Biolegend) for 30 min at 4° C. After washing, the cells were resuspended in PBS containing 2% FCS and 2 mM EDTA and stained with the extracellular mix using APC-anti-BDCA4 (clone 12C2), FITC-anti-CD123 (clone 6H6), PerCP.cy5.5-anti-CD56 (clone 5.1H11), BV421-anti-HLADR (clone L243), PE.cy7-anti-CD19 (clone 4G7), APC-cy.7-anti-CD14 (clone M5E2) all from Biolegend and used at 1/200 and V500-anti-CD3 (BD Bioscience, clone SP34-2, 1/200). For the TNFα intracellular staining a Fixation/Permeabilization Solution Kit (BD Cytofix/Cytoperm) was used according to the manufacturer's protocol. Briefly, the cells were fixed for 10 min at 4° C. with 100 μL of the Fixation/Permeabilization solution then washed and stained in 100 μL of the BD Perm/Wash Buffer containing TNFα-APC (Miltenyi, 1/500) antibody for 1 h at 4° C. Data acquisition was performed on a Canto II flow cytometer using Diva software (BD Biosciences, San Jose, Calif.). FlowJo software (Treestar, Ashland, Oreg.) was used to analyze data.

[2] = tested on: IL-12p70; assay: Cytokine production by R848-activated PBMCs, LEGENDplex Human Inflammation panel 1: IL-12p70; format: cell-based; conditions: Homo sapiens, PBMC, PBMCs from 2 healthy donors, R848 overnight
Description: (§1) 2) The PBMCs used herein were prepared as described in part A “immune cells preparation”, section 2) above. PBMCs were seeded at 4.10^6/mL. […] Cells were then stimulated with the TLR7/8 agonist resiquimod—R848 (Sigma-Aldrich, MO, USA) at 5 μg/mL.
(§2) Cytokine expression levels were assessed using LEGENDplex Human inflammation panel 1 Kit (BioLegend, California, USA), which is a bead-based multiplex assay, using fluorescence-encoded beads. […] First, supernatants of R848-stimulated PBMCs were harvested after 24 h of stimulation and frozen at −20° C. for storage. Supernatants were dispensed into a 96-well V-bottom plate. Protocol pursued as per manufacturer recommendations (Manual for BioLegend LEGENDplex, Multi-Analyte Flow Assay Kit, Human Inflammation Panel 1, version 750000393_R01).

[3] = tested on: IFN production by activated immune cells (PBMC); assay: IFN production by R848-activated PBMC from healthy donors, STING-37 reporter cell line; format: cell-based, human; conditions: different concentrations, R848, STING-37 reporter, FIG. 1
Description: 1) The blood from healthy donors was obtained from two sources. Either from “Etablissement Français du Sang” (convention #07/CABANEL/106), Paris, France or from the Apheresis and Blood Donation Unit at the Institute of Transfusion Medicine and Immunogenetics (IKT), Ulm, Germany after being approved by the Institutional Review Board at Ulm University.
In vitro experiments were performed using human peripheral blood mononuclear cells (PBMCs) isolated by density centrifugation from peripheral blood leukocyte separation medium (Cambrex, Gaithersburg, Md.).
PBMCs were cultured in RPMI 1640 (Invitrogen, Gaithersburg, Md.) (R10) containing 10% heat-inactivated fetal bovine serum, 100 U/mL Penicilium and 100 μg/mL Streptomycin (1% Pen-Strep) and 1 mM glutamine (Hyclone, Logan, Utah).
1) The PBMCs used herein were prepared as described in part A “immune cells preparation”, section 1) above. PBMCs were seeded at 2.10^6/mL. […]
1) To quantify the secretion of functional IFN, a biological assay based on a stable cell line where luciferase reporter gene is controlled by five Interferon-Stimulated Response Elements (STING37 cell line) was used. […] After 24 h of culture, luciferase activity was determined by adding 50 μL of Bright-Glo reagents (Promega) to culture wells and measuring bioluminescence with a luminometer.

[4] = tested on: IFN-γ; assay: Cytokine production by R848-activated PBMCs, LEGENDplex Human Inflammation panel 1: IFN-γ; format: cell-based; conditions: Homo sapiens, PBMC, PBMCs from 2 healthy donors, R848 overnight
Description: as §1, §2

[5] = tested on: IL-1β; assay: Cytokine production by R848-activated PBMCs, LEGENDplex Human Inflammation panel 1: IL-1β; format: cell-based; conditions: Homo sapiens, PBMC, PBMCs from 2 healthy donors, R848 overnight, read-out: IC50 (μM) 1L-1β
Description: as §1, §2

[6] = tested on: IL-23; assay: Cytokine production by R848-activated PBMCs, LEGENDplex Human Inflammation panel 1: IL-23; format: cell-based; conditions: Homo sapiens, PBMC, PBMCs from 2 healthy donors, R848 overnight
Description: as §1, §2

CC1(C)CN2C(CSC3=NCC(C)(C)N3)=CSC2=N1 [Example 2, 3-(((5,5-dimethyl-4,5-dihydro-1H-imidazol-2-yl)thio)methyl)-6,6-dimethyl-5,6-dihydroimidazo[2,1-b]thiazole dihydrochloride]
TNFα production by activated monocytes in the presence of the example after pre-incubation with AMD3100 [1]: restored
IC50 [2]: 14 µM
reduction of IFN production by activated PBMCs [3]: 100%
IC50 [4]: 26 µM
IC50 [5]: 32 µM
IC50 [6]: 4.7 µM
